This note sets out measurements from patent US12291518B2, “Thyroid hormone receptor agonists and use thereof” (Eccogene Inc., priority 2020, dated 2025).

One may read the EC50 as the concentration needed to bring the measured effect to its halfway point.

The target of one assay is T1, THR beta-LBD (Homo sapiens, UniProt P10828).
T1 construct: THR beta-LBD (the final concentration is 0.5 nM) was added to the 384-well assay plate; purchased Invitrogen PV4686
T1 sequence (P10828 217-461 limits assumed): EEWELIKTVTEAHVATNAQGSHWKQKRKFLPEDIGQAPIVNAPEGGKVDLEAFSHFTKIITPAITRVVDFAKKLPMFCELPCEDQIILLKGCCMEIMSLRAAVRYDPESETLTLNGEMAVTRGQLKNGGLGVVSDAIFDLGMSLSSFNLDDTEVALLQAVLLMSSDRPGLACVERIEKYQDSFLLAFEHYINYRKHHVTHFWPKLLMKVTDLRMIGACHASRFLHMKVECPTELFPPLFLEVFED
The assay can be described thus: THR-β Coactivator Peptide Recruitment Assay (LanthaScreen TR-FRET). The assay is classed as biochemical. The conditions noted are these: TR-FRET coactivator recruitment, THR beta-LBD 0.5 nM; for EC50: read-out: THRβ EC50. The essentials: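 GST-tagged THR beta-LBD (0.5 nM) with test compound recruits fluorescein-SRC2-2 coactivator peptide (0.1 nM), detected with Tb-anti-GST antibody (2 nM).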
(In general: Time-resolved FRET reads energy transfer from a long-lived donor to a nearby acceptor.)

Another assay addresses T2, THR alpha-LBD (Homo sapiens, UniProt P10827).
T2 construct: except that THR alpha-LBD of a final concentration 0.25 nM was used; purchased Invitrogen PV4687
Kind of assay: THR-α Coactivator Peptide Recruitment Assay (LanthaScreen TR-FRET). Type of assay: biochemical. The note with it: TR-FRET coactivator recruitment, THR alpha-LBD 0.25 nM; for EC50: read-out: THRα EC50. Summed up:
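TR-FRET coactivator recruitment with THR alpha-LBD at 0.25 nM final, Fluorescein-SRC2-2 peptide 0.1 nM and Tb-labeled anti-GST antibody 2 nM; 2 h incubation at room temperature. 520/495 nm emission ratio fitted to a four-parameter sigmoidal curve to give EC50.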

Each structure is given as a SMILES string.

T2 sequence (P10827 163-410 isoform P10827-2 limits assumed, other chains not shown): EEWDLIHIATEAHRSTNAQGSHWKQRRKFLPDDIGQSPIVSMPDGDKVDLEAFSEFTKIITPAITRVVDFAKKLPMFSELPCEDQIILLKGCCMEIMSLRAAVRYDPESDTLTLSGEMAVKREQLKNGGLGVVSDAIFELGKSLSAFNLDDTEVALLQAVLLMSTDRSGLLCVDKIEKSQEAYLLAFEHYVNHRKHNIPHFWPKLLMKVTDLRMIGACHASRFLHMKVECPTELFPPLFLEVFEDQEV

Regarding `O=c1[nH]c(=O)n(-c2cc(Cl)c(Oc3cc(S(=O)(=O)N4CC(F)(F)C4)c(O)cn3)c(Cl)c2)nc1C(F)F` [Compound 109, 2-(3,5-dichloro-4-((4-((3,3-difluoroazetidin-1-yl)sulfonyl)-5-hydroxypyridin-2-yl)oxy)phenyl)-6-(difluoromethyl)-1,2,4-triazine-3,5(2H,4H)-dione], on THR beta-LBD, the “THRβ Emax” value was “B (75~90)” and the half-maximal effective concentration (EC50) was less than 2 nM. Further, on THR alpha-LBD, the “THRα Emax” value is given as “A (85~110)” and the EC50 is 2 to 200 nM.

Consider `CC(C)NS(=O)(=O)c1cc(Oc2c(Cl)cc(-n3nc(C(F)F)c(=O)[nH]c3=O)cc2Cl)ncc1O` [Compound 110, 2-(2,6-dichloro-4-(6-(difluoromethyl)-3,5-dioxo-4,5-dihydro-1,2,4-triazin-2(3H)-yl)phenoxy)-5-hydroxy-N-isopropylpyridine-4-sulfonamide], for which, at THR beta-LBD, the “THRβ Emax” value is given as “A (90~110)” and the EC50 is less than 2 nM. Further, at THR alpha-LBD, the “THRα Emax” value is given as “A (85~110)” and the EC50 was 2 to 200 nM.

On to `O=c1[nH]c(=O)n(-c2cc(Cl)c(Oc3cc(S(=O)(=O)NCC(F)F)c(O)cn3)c(Cl)c2)nc1C(F)F` [Compound 111, 2-(2,6-dichloro-4-(6-(difluoromethyl)-3,5-dioxo-4,5-dihydro-1,2,4-triazin-2(3H)-yl)phenoxy)-N-(2,2-difluoroethyl)-5-hydroxypyridine-4-sulfonamide], for which, at THR beta-LBD, the “THRβ Emax” value is “A (90~110)” and the half-maximal effective concentration (EC50) is less than 2 nM. Further, on THR alpha-LBD, the “THRα Emax” value is “A (85~110)” and the half-maximal effective concentration (EC50) is 2 to 200 nM.

Take `CCNS(=O)(=O)c1cc(Oc2c(Cl)cc(-n3nc(C(F)F)c(=O)[nH]c3=O)cc2Cl)ncc1O` [Compound 112, 2-(2,6-dichloro-4-(6-(difluoromethyl)-3,5-dioxo-4,5-dihydro-1,2,4-triazin-2(3H)-yl)phenoxy)-N-ethyl-5-hydroxypyridine-4-sulfonamide]: at THR beta-LBD, the “THRβ Emax” value is recorded as “A (90~110)” and the concentration for a half-maximal effect (EC50) is less than 2 nM. On THR alpha-LBD, the “THRα Emax” value is listed as “A (85~110)” and the concentration for a half-maximal effect (EC50) was in the range of 2 to 200 nM.

Regarding `CN(C)S(=O)(=O)c1cc(Oc2c(Cl)cc(-n3nc(C(F)F)c(=O)[nH]c3=O)cc2Cl)ncc1O` [Compound 113, 2-(2,6-dichloro-4-(6-(difluoromethyl)-3,5-dioxo-4,5-dihydro-1,2,4-triazin-2(3H)-yl)phenoxy)-5-hydroxy-N,N-dimethylpyridine-4-sulfonamide], on THR beta-LBD, the “THRβ Emax” value is “B (75~90)” and the EC50 was less than 2 nM. In addition, at THR alpha-LBD, the “THRα Emax” value is recorded as “A (85~110)” and the EC50 is 2 to 200 nM.

Consider `N#Cc1nn(-c2cc(Cl)c(Oc3cc(S(=O)(=O)NC4CC4)c(O)cn3)c(Cl)c2)c(=O)[nH]c1=O` [Compound 114, N-cyclopropyl-2-(2,6-dichloro-4-(6-cyano-3,5-dioxo-4,5-dihydro-1,2,4-triazin-2(3H)-yl)phenoxy)-5-hydroxypyridine-4-sulfonamide], for which, at THR beta-LBD, the “THRβ Emax” value is “A (90~110)” and the EC50 was less than 2 nM. At THR alpha-LBD, the “THRα Emax” value is “A (85~110)” and the EC50 lay in the range of 2 to 200 nM.

Take `O=C(NC1CCC1)C1(NS(=O)(=O)c2cc(Oc3c(Cl)cc(-n4nc(C(F)F)c(=O)[nH]c4=O)cc3Cl)ncc2O)CC1` [Compound 115, N-cyclobutyl-1-[[2-[2,6-dichloro-4-[6-(difluoromethyl)-3,5-dioxo-1,2,4-triazin-2-yl]phenoxy]-5-hydroxy-4-pyridyl]sulfonylamino]cyclopropanecarboxamide]: on THR beta-LBD, the “THRβ Emax” value is reported as “C (<75)” and the EC50 was in the range of 2 to 20 nM. Also, at THR alpha-LBD, the “THRα Emax” value is recorded as “B (40~85)” and the EC50 is more than 1000 nM.

As for `O=C(NC1CCCC1)C1(NS(=O)(=O)c2cc(Oc3c(Cl)cc(-n4nc(C(F)F)c(=O)[nH]c4=O)cc3Cl)ncc2O)CC1` [Compound 116, N-cyclopentyl-1-((2-(2,6-dichloro-4-(6-(difluoromethyl)-3,5-dioxo-4,5-dihydro-1,2,4-triazin-2(3H)-yl)phenoxy)-5-hydroxypyridine)-4-sulfonamido)cyclopropane-1-carboxamide], on THR beta-LBD, the “THRβ Emax” value is recorded as “C (<75)” and the EC50 was 20 to 100 nM. On THR alpha-LBD, the “THRα Emax” value was “B (40~85)” and the concentration giving a half-maximal response (EC50) was more than 1000 nM.

Turning to `O=C(NCC(F)F)C1(NS(=O)(=O)c2cc(Oc3c(Cl)cc(-n4nc(C(F)F)c(=O)[nH]c4=O)cc3Cl)ncc2O)CC1` [Compound 117, 1-((2-(2,6-dichloro-4-(6-(difluoromethyl)-3,5-dioxo-4,5-dihydro-1,2,4-triazin-2(3H)-yl)phenoxy)-5-hydroxypyridine)-4-sulfonamido)-N-(2,2-difluoroethyl)cyclopropane-1-carboxamide], on THR beta-LBD, the “THRβ Emax” value is recorded as “C (<75)” and the EC50 is 20 to 100 nM. At THR alpha-LBD, the “THRα Emax” value is on record as “C (<40)” and the EC50 was more than 1000 nM.

Turning to `O=C(N1CCCC1)C1(NS(=O)(=O)c2cc(Oc3c(Cl)cc(-n4nc(C(F)F)c(=O)[nH]c4=O)cc3Cl)ncc2O)CC1` [Compound 118, 2-(2,6-dichloro-4-(6-(difluoromethyl)-3,5-dioxo-4,5-dihydro-1,2,4-triazin-2(3H)-yl)phenoxy)-5-hydroxy-N-(1-(pyrrolidine-1-carbonyl)cyclopropyl)pyridine-4-sulfonamide], on THR beta-LBD, the “THRβ Emax” value is recorded as “B (75~90)” and the EC50 is more than 100 nM. At THR alpha-LBD, the “THRα Emax” value was “C (<40)” and the concentration for a half-maximal effect (EC50) is more than 1000 nM.

With `O=C(CNS(=O)(=O)c1cc(Oc2c(Cl)cc(-n3nc(C(F)F)c(=O)[nH]c3=O)cc2Cl)ncc1O)NC1CCC1` [Compound 119, N-cyclobutyl-2-[[2-[2,6-dichloro-4-[6-(difluoromethyl)-3,5-dioxo-1,2,4-triazin-2-yl]-phenoxy]-5-hydroxy-4-pyridyl]-sulfonylamino]-acetamide], on THR beta-LBD, the “THRβ Emax” value was “C (<75)” and the EC50 is more than 100 nM. Moreover, at THR alpha-LBD, the “THRα Emax” value is given as “C (<40)” and the EC50 is more than 1000 nM.

On to `O=C(CNS(=O)(=O)c1cc(Oc2c(Cl)cc(-n3nc(C(F)F)c(=O)[nH]c3=O)cc2Cl)ncc1O)NC1CC1` [Compound 120, N-cyclopropyl-2-((2-(2,6-dichloro-4-(6-(difluoromethyl)-3,5-dioxo-4,5-dihydro-1,2,4-triazin-2(3H)-yl)phenoxy)-5-hydroxypyridine)-4-sulfonamido)acetamide], for which, on THR beta-LBD, the “THRβ Emax” value is “C (<75)” and the 50% effective concentration (EC50) is more than 100 nM. Besides, at THR alpha-LBD, the “THRα Emax” value is “C (<40)” and the EC50 was more than 1000 nM.

Consider `O=C(NC1CC1)C1(NS(=O)(=O)c2cc(Oc3c(Cl)cc(-n4nc(C(F)F)c(=O)[nH]c4=O)cc3Cl)ncc2O)CCC1` [Compound 121, N-cyclopropyl-1-((2-(2,6-dichloro-4-(6-(difluoromethyl)-3,5-dioxo-4,5-dihydro-1,2,4-triazin-2(3H)-yl)phenoxy)-5-hydroxypyridine)-4-sulfonamido)cyclobutane-1-carboxamide], for which, at THR beta-LBD, the “THRβ Emax” value is given as “C (<75)” and the concentration giving a half-maximal response (EC50) is more than 100 nM. Besides, on THR alpha-LBD, the “THRα Emax” value is reported as “C (<40)” and the half-maximal effective concentration (EC50) was more than 1000 nM.

Regarding `CC1(C)CC(NS(=O)(=O)c2cc(Oc3c(Cl)cc(-n4nc(C(F)F)c(=O)[nH]c4=O)cc3Cl)ncc2O)C1` [Compound 122], at THR beta-LBD, the “THRβ Emax” value was “C (<75)” and the concentration for a half-maximal effect (EC50) fell in the range of 2 to 20 nM. For the same molecule, at THR alpha-LBD, the “THRα Emax” value was “B (40~85)” and the EC50 is 200 to 1000 nM.

Consider `O=c1[nH]c(=O)n(-c2cc(Cl)c(Oc3cc(S(=O)(=O)NC4CCC4)c(O)cn3)c(Cl)c2)nc1C(F)F` [Compound 123, N-cyclobutyl-2-(2,6-dichloro-4-(6-(difluoromethyl)-3,5-dioxo-4,5-dihydro-1,2,4-triazin-2(3H)-yl)phenoxy)-5-hydroxypyridine-4-sulfonamide], for which, at THR beta-LBD, the “THRβ Emax” value was “A (90~110)” and the EC50 was less than 2 nM. For the same molecule, on THR alpha-LBD, the “THRα Emax” value was “A (85~110)” and the EC50 is 2 to 200 nM.

In the case of `O=c1[nH]c(=O)n(-c2cc(Cl)c(Oc3cc(S(=O)(=O)NC4CCCC4)c(O)cn3)c(Cl)c2)nc1C(F)F` [Compound 124, N-cyclopentyl-2-(2,6-dichloro-4-(6-(difluoromethyl)-3,5-dioxo-4,5-dihydro-1,2,4-triazin-2(3H)-yl)phenoxy)-5-hydroxypyridine-4-sulfonamide], at THR beta-LBD, the “THRβ Emax” value was “B (75~90)” and the concentration for a half-maximal effect (EC50) was less than 2 nM. At THR alpha-LBD, the “THRα Emax” value is reported as “B (40~85)” and the EC50 was 2 to 200 nM.

In the case of `N#C[C@H]1C[C@@H](NS(=O)(=O)c2cc(Oc3c(Cl)cc(-n4nc(C(F)F)c(=O)[nH]c4=O)cc3Cl)ncc2O)C1` [Compound 125, N-((1s,3s)-3-cyanocyclobutyl)-2-(2,6-dichloro-4-(6-(difluoromethyl)-3,5-dioxo-4,5-dihydro-1,2,4-triazin-2(3H)-yl)phenoxy)-5-hydroxypyridine-4-sulfonamide], at THR beta-LBD, the “THRβ Emax” value is “B (75~90)” and the EC50 fell in the range of 2 to 20 nM. For the same molecule, on THR alpha-LBD, the “THRα Emax” value is “B (40~85)” and the half-maximal effective concentration (EC50) is 200 to 1000 nM.
